Source: patent US20130150434A1 (SOMAXON PHARMACEUTICALS, INC., priority 2006, published 2013)

How the values were obtained:
[1] = tested on: chronic primary insomnia patients with sleep maintenance difficulties; assay: Phase III study of doxepin, subjective assessments by morning questionnaire (sWASO, LSO, sTST); conditions: ITT; for LSO (subjective latency to sleep onset), Mean (SD) / sTST (subjective total sleep time), Mean (SD) / sTST, Median / sWASO (subjective wake after sleep onset), Mean (SD): Baseline (mean of Days −5 and −4)
Description: (§1) Patients with at least a 3-month history of primary insomnia, according to Diagnostic and Statistical Manual of Mental Disorders, Fourth Edition Text Revision (DSM-IV-TR)-defined primary insomnia were enrolled.
(§2) After the PSG Screening and Baseline periods, patients began a 35-day double-blind treatment period during which they were given study drug supplies at each scheduled visit (Visits 4, 5, and 6). The scheduled study visits consisted of two consecutive nights of 8-hour PSG recording in the sleep center and next day assessments to assess sedative efficacy. Patients were asked to complete hangover/residual effects assessments, morning and evening questionnaires, and the Benzodiazepine Withdrawal Symptom Questionnaire (BWSQ) at each of these visits.
Subjective Variables: Subjective assessments included data obtained on Days 2, 16, and 30, and included subjective TST (sTST), subjective WASO (sWASO), latency to sleep onset (LSO), subjective NAASO (sNAASO), and sleep quality (all assessed by a morning questionnaire), daytime functioning (assessed by an evening questionnaire), average nightly sTST during at-home administration (5 days before the PSG visit), CGI rating scale for Severity and Therapeutic Effect completed by the clinician and patient, and a measure of insomnia severity (assessed by ISI).
(§3) Methods used to analyze other endpoints were the same as those used to analyze WASO. For LPS, latency to REM sleep, latency to Stage 2 sleep, and LSO, data were expected to be log-normally distributed and were analyzed using log-transformed values (base 10). The safety data were analyzed primarily using descriptive statistical methods.
(§4) All efficacy analyses were performed on the Intent-to-treat (ITT) analysis set. […] Data were analyzed as randomized and based on observed cases.

[2] = Phase III study of doxepin, safety assessments (body weight, residual effects, withdrawal symptoms, laboratory tests, ECG); format: in vivo, human
Protocol: Safety assessments including adverse events (AEs), vitals, and neurological assessments were performed throughout the study period. Other safety assessments, including clinical laboratory tests, electrocardiograms (ECGs), and physical examinations (PEs) were performed before and after the study treatment period. For early termination, all safety assessments, including AEs neurological assessments, clinical laboratory tests, ECGs, vitals, and PEs were performed.
Safety: Safety was assessed based on AEs, clinical laboratory tests (hematology, serum chemistry, and urinalysis), vital signs, physical examinations, neurological assessments, 12-lead ECGs, and ratings of hangover/residual effects (digit-symbol substitution test (DSST), symbol copying test (SCT), and the visual analog scale (VAS) for sleepiness), assessment of rebound insomnia using PSG recordings during the discontinuation period, and withdrawal symptoms using the benzodiazepine withdrawal symptom questionnaire (BWSQ).
Safety analyses included all randomized patients who received at least one dose of double-blind study medication. Treatment assignment for safety data was based on the treatment actually received.

[3] = tested on: chronic primary insomnia patients with sleep maintenance difficulties; assay: Phase III study of doxepin, 8-hour PSG efficacy variables (WASO, TST, SE, LPS)
Description: as §1
Patients were screened (Visit 1) to determine study eligibility and asked to discontinue any protocol-disallowed prescription or over-the-counter (OTC) medications used as sleep medication. At the beginning of the first week (polysomnography [PSG] Screening, Visit 2), eligible patients began two weeks of single-blind placebo dosing and had two consecutive nights of 8-hour PSG recording in the sleep center. Patients were required to meet the PSG screening criteria to remain eligible for the study. Patients were allowed to leave the sleep center during the day after the PSG Screening nights and continued to take single-blind placebo after PSG Screening (Visit 2) for five consecutive nights at home.
Patients were allowed to leave the sleep center during the day after the PSG nights and continued taking single-blind placebo for five consecutive nights at home.
as §2
Primary Efficacy: The primary efficacy variable was wake after sleep onset (WASO) obtained on Night 1 as determined by PSG recordings using the ITT analysis set.
Additional PSG efficacy variables: Additional efficacy variables obtained on the first PSG assessment nights (Nights 1 and 29) included WASO (Night 29), wake time during sleep (WTDS), total sleep time (TST), sleep efficiency (SE), including whole night, third of the night, and by hour, and latency to persistent sleep (LPS), latency to Stage 2 sleep, number of awakenings after sleep onset (NAASO), total wake time (TWT), wake time after sleep (WTAS), and, sleep architecture including percentage and minutes of Stage 1, 2, and 3/4 non-rapid eye movement (NREM) sleep, percentage and minutes of rapid eye movement (REM) sleep, and latency to REM sleep.
as §3, §4

[4] = doxepin 3 mg group, Baseline, ITT
[5] = doxepin 3 mg, Night 1, ITT, p<0.0001 vs placebo
[6] = doxepin 3 mg, Night 15, ITT, p 0.1977 vs placebo
[7] = doxepin 3 mg, Night 29, ITT, p 0.0262 vs placebo

In the case of CN(C)CCC=C1c2ccccc2COc2ccccc21 [Doxepin, 11-(3-dimethylaminopropylidene)-6,11-dihydrodibenzo (b,e)oxepin], the “LSO (subjective latency to sleep onset), Mean (SD)” value ([1]; Doxepin HCl 3 mg group) is reported as 61.4 (39.43) minutes, the “sTST (subjective total sleep time), Mean (SD)” value ([1]; Doxepin HCl 3 mg group) is reported as 330.0 (63.23) minutes and the “sTST, Median” value ([1]; Doxepin HCl 3 mg group) is reported as 330.0 min. The “sTST, Mean (SD)” value ([1]; Doxepin HCl 3 mg, Visit 4, Day 2, p 0.0169 vs placebo) was 361.8 (64.03) minutes, the “LSO, Mean (SD)” value ([1]; Doxepin HCl 3 mg, Visit 4, Day 2, p 0.2296 vs placebo) was 50.3 (36.73) minutes and the “sTST, Mean (SD)” value ([1]; Doxepin HCl 3 mg, Visit 5, Day 16, p 0.3260 vs placebo) was 361.0 (67.22) minutes. For the same compound, the “LSO, Mean (SD)” value ([1]; Doxepin HCl 3 mg, Visit 5, Day 16, p 0.9838 vs placebo) was 52.9 (35.17) minutes, the “LSO, Mean (SD)” value ([1]; Doxepin HCl 3 mg, Visit 6, Day 30, p 0.3567 vs placebo) was 48.9 (34.71) minutes and the “sTST, Mean (SD)” value ([1]; Doxepin HCl 3 mg, Visit 6, Day 30, p 0.9972 vs placebo) was 360.7 (68.72) minutes. For the same compound, the “LSO (subjective latency to sleep onset), Mean (SD)” value ([1]; Doxepin HCl 6 mg group) was 64.0 (43.45) minutes, the “sTST (subjective total sleep time), Mean (SD)” value ([1]; Doxepin HCl 6 mg group) was 339.3 (61.45) minutes and the “sTST, Median” value ([1]; Doxepin HCl 6 mg group) was 330.0 min. The “sTST, Mean (SD)” value ([1]; Doxepin HCl 6 mg, Visit 4, Day 2, p 0.0256 vs placebo) was 369.0 (78.39) minutes, the “LSO, Mean (SD)” value ([1]; Doxepin HCl 6 mg, Visit 4, Day 2, p 0.0960 vs placebo) was 55.7 (56.96) minutes and the “sTST, Mean (SD)” value ([1]; Doxepin HCl 6 mg, Visit 5, Day 16, p 0.1611 vs placebo) was 371.5 (72.06) minutes. For the same compound, the “LSO, Mean (SD)” value ([1]; Doxepin HCl 6 mg, Visit 5, Day 16, p 0.2689 vs placebo) was 48.7 (42.35) minutes, the “sTST, Mean (SD)” value ([1]; Doxepin HCl 6 mg, Visit 6, Day 30, p 0.6831 vs placebo) was 373.0 (75.30) minutes and the “LSO, Mean (SD)” value ([1]; Doxepin HCl 6 mg, Visit 6, Day 30, p 0.8242 vs placebo) was 48.3 (47.40) minutes. The “sWASO (subjective wake after sleep onset), Mean (SD)” value ([1]; doxepin 3 mg group) was 80.6 (48.12) minutes, the “sWASO, Mean (SD)” value ([1]; doxepin 3 mg, Visit 4, Day 2, p 0.0005 vs placebo) was 55.7 (39.81) minutes and the “sWASO, Mean (SD)” value ([1]; doxepin 3 mg, Visit 5, Day 16, p 0.2582 vs placebo) was 59.0 (54.14) minutes. The “sWASO, Mean (SD)” value ([1]; doxepin 3 mg, Visit 6, Day 30, p 0.8958 vs placebo) was 63.1 (47.24) minutes, the “sWASO (subjective wake after sleep onset), Mean (SD)” value ([1]; doxepin 6 mg group) was 78.2 (43.06) minutes and the “sWASO, Mean (SD)” value ([1]; doxepin 6 mg, Visit 4, Day 2, p 0.0007 vs placebo) was 54.9 (44.76) minutes. For the same compound, the “sWASO, Mean (SD)” value ([1]; doxepin 6 mg, Visit 5, Day 16, p 0.3357 vs placebo) was 58.4 (49.09) minutes, the “sWASO, Mean (SD)” value ([1]; doxepin 6 mg, Visit 6, Day 30, p 0.8020 vs placebo) was 58.2 (53.07) minutes and the “Changes in other clinical laboratory tests, vital sign measurements, physical examinations, neurological assessments, or ECG parameters” value ([2]; 3 mg and 6 mg) was “no clinically relevant changes”. The “Next day residual effects” value ([2]; 3 mg and 6 mg) was “no significant next day residual effects”, the Withdrawal effects ([2]; 3 mg and 6 mg, abrupt discontinuation) was “no withdrawal effects” and the “Body Weight, Change from Screening, mean (±SD)” value ([2]; Doxepin HCl 3 mg) was 0.3 (2.21) kg. The “Body Weight, Change from Screening, mean (±SD)” value ([2]; Doxepin HCl 6 mg) was 0.0 (2.19) kg, the “Sedative tolerance (sleep maintenance variables across study visits, PSG)” value ([3]; 3 mg and 6 mg, 35-day double-blind treatment) was “no evidence of sedative tolerance” and the “8-hour WASO, Mean (SD)” value ([3]; doxepin 3 mg group, Baseline (single-blind placebo), ITT) was 67.8 (33.56) minutes. The “LPS (latency to persistent sleep, PSG), Mean (SD)” value [3, 4] was 35.9 (29.84) minutes, the “SE - Hour 8 (PSG), Mean (SD)” value [3, 4] was 74.9 (22.87) % and the “TST (8-hour PSG), Mean (SD)” value [3, 4] was 380.3 (46.09) minutes. The “8-hour WASO, Mean (SD)” value ([3]; doxepin 3 mg, Night 1 (primary), ITT, p<0.0001 vs placebo) was 41.4 (31.51) minutes, the “LPS (PSG), Mean (SD)” value ([3]; doxepin 3 mg, Night 1, ITT, p 0.0110 vs placebo) was 26.7 (23.42) minutes and the “SE (8-hour PSG), Mean (SD)” value [3, 5] was 86.5 (8.68) %. The “SE - Hour 8 (PSG), Mean (SD)” value [3, 5] was 87.8 (14.28) %, the “TST (8-hour PSG), Mean (SD)” value [3, 5] was 415.3 (41.65) minutes and the “8-hour WASO, Mean (SD)” value ([3]; doxepin 3 mg, Night 15, ITT, p 0.0053 vs placebo) was 44.8 (27.26) minutes. The “SE (8-hour PSG), Mean (SD)” value [3, 6] was 83.7 (10.12) %, the “TST (8-hour PSG), Mean (SD)” value [3, 6] was 401.7 (48.56) minutes and the “LPS (PSG), Mean (SD)” value ([3]; doxepin 3 mg, Night 15, ITT, p 0.3644 vs placebo) was 38.2 (40.52) minutes. For the same compound, the “SE (8-hour PSG), Mean (SD)” value [3, 7] was 85.0 (10.92) %, the “TST (8-hour PSG), Mean (SD)” value [3, 7] was 408.1 (52.41) minutes and the “8-hour WASO, Mean (SD)” value ([3]; doxepin 3 mg, Night 29, ITT, p 0.0299 vs placebo) was 47.3 (43.53) minutes. For the same compound, the “SE - Hour 8 (PSG), Mean (SD)” value ([3]; doxepin 3 mg, Night 29, ITT, p 0.0524 vs placebo) was 81.9 (20.81) % and the “LPS (PSG), Mean (SD)” value ([3]; doxepin 3 mg, Night 29, ITT, p 0.9008 vs placebo) was 28.0 (25.99) minutes.
